In patent publication US20100311133A1, “ELECTRODE, ENZYME SENSOR USING THE ELECTRODE, FUEL BATTERY, ELECTRONIC DEVICE, AND METHOD FOR DECOMPOSING POLYOL” (SONY CORPORATION, priority 2007, published 2010):

Columns and labels:
Aldehyde reductase = test: Amount of NADH generated from polyol substrates by aldehyde reductase (Example 3); assay type: biochemical, Candida; settings: substrate 100 mmol/L; NAD+ 1.3 mg/mL; enzyme 2.5 μ/mL; 25° C.; relative to alcohol dehydrogenase with ethylene glycol = 100
From the text: (§1) To be more specific, an alcohol dehydrogenase and an aldehyde reductase were allow to act with each substrate and the amount of NADH generated was comparatively investigated.
(§2) Individual relative values are indicated as relative values by assuming the amount of NADH generated from action of the alcohol dehydrogenase with ethylene glycol to be 100.

Alcohol dehydrogenase = target: T1, Alcohol dehydrogenase (Saccharomyces cerevisiae, UniProt P00330); test: Amount of NADH generated from polyol substrates by alcohol dehydrogenase (Example 3); assay type: biochemical, yeast; settings: substrate 100 mmol/L; NAD+ 1.3 mg/mL; enzyme 2.5 μ/mL; 25° C.; relative to alcohol dehydrogenase with ethylene glycol = 100
T1 construct: purchased Wako Pure Chemical Industries, Ltd
T1 sequence (P00330 1-348): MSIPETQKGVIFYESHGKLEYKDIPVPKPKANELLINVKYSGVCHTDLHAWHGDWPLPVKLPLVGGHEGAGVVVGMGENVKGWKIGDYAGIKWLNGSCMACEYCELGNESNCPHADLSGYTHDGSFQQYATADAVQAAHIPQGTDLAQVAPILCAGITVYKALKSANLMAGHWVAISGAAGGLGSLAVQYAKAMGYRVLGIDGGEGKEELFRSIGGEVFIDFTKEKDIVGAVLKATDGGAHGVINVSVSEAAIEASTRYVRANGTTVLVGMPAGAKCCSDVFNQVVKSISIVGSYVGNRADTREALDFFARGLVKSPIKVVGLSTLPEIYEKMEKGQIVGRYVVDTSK
From the text: as §1, §2

| Amount of reduced coenzyme generated (relative value %), Aldehyde reductase (Aldehyde reductase) [%] | Amount of reduced coenzyme generated (relative value %), Alcohol dehydrogenase (Alcohol dehydrogenase) [%] | SMILES |
| --- | --- | --- |
| 7.0 | 0.6 | OCC(O)CO [Glycerol, glycerol] |
| 34 | 0.4 | OC[C@@H](O)[C@H](O)[C@@H](O)CO [Xylitol, xylitol] |
| 50 | 6.0 | OC[C@@H](O)[C@@H](O)CO [Erythritol, erythritol] |

| SMILES | Amount of reduced coenzyme generated (relative value %), Aldehyde reductase (Aldehyde reductase) [%] | Amount of reduced coenzyme generated (relative value %), Alcohol dehydrogenase (Alcohol dehydrogenase) [%] |
| --- | --- | --- |
| OCCO [Ethylene glycol, ethylene glycol] | 4.0 | 100 |
| OC[C@@H](O)[C@@H](O)[C@H](O)[C@@H](O)CO [Sorbitol, sorbitol] | 100 | 0.7 |
